Tests used:
[1] = cited from earlier work
[2] = storage stability (potency / % remaining after storage); assay type: physicochemical

For `COc1cc([C@@H]2c3cc4c(cc3[C@@H](O[C@@H]3O[C@@H]5CO[C@@H](C)O[C@H]5[C@H](O)[C@H]3O)[C@H]3COC(=O)[C@H]23)OCO4)cc(OC)c1O` [etoposide, Etoposide], the solubility in water [1] is given as “about 0.1 mg/ml”.
In the case of `COc1cc(C2c3cc4c(cc3C(OC3OC5COC(C)OC5C(O)C3O)C3COC(=O)C23)OCO4)cc(OC)c1OP(=O)([O-])[O-].O.O.O.O.O.O.[Na+].[Na+]` (centres unmarked) [hexahydrate, Etoposide 4'-Phosphate Disodium salt hexahydrate], the “% Remaining” value ([2]; 9 weeks at 50°C, in sealed glass vials) is reported as 99.4%, the potency remaining ([2]; 28 days at 37°C) is reported as 100% and the “% Remaining” value ([2]; 28 days at 80% Relative Humidity, 37°C) is reported as 100.0%. It also gave a potency ([2]; storage for 63 days at 30°C) greater than 99%.
